Usually inhibition stands for the relative decrease from the control value, in per cent. The term melting point denotes the temperature of the solid-liquid transition.

The record followed here is patent US6965039B2, “7-carboxy-flavone derivatives preparation method and therapeutic use” (Negma-Lerads, priority 2000, dated 2005).

The test system of one data set is IL-1 (interleukin 1). As to the kind of experiment: Inhibition of IL-1 secretion on PBMC cells (method of Schindler). Conditions: tests in duplicate. It counts as cell-based. How it is done:
(§1) The inhibiting activity on the secretion of inflammatory cytokines of the compounds of the invention was tested in vitro, more particularly on the secretion of IL-1 (interleukin 1) and on IL-6 and TNFα (tumor necrosis factor), which are the main cytokines related to the arthrotic process.
(§2) The tests on these three cytokines were carried out on PBMC (Peripheral Blood Mononuclear Cells) cells according to the method of Schindler (R. Schindler et al., Blood, (1990) 75, 40-47) using cycloheximide (IL-1) and dexamethasone (IL-6, TNFα) as reference products.
(§3) The results of the tests carried out with the flavone derivatives of the invention described in examples 1, 4 and 6 above [sic] are combined in the following table. The tests were carried out in duplicate, at concentrations of 1 and 10 μM. The results are expressed as percentage of inhibition.

For the next data set, the system named is IL-6. As to the kind of experiment: Inhibition of IL-6 secretion on PBMC cells (method of Schindler). It counts as cell-based. The settings on record: tests in duplicate. As for the experimental part: as §1, §2, §3
Data set [1] deals with TNFα (tumor necrosis factor). Briefly: Inhibition of TNFα secretion on PBMC cells (method of Schindler). It counts as cell-based. Conditions: tests in duplicate, read-out: TNFα, percentage of inhibition. As for the experimental part:
as §1, §2, §3

The subject of another data set is prostaglandins (PGE2). Briefly: Secretion of prostaglandins (PGE2) on differentiated HL-60 cells (method of Honda). In kind it is cell-based. How it is done: The effect of the derivatives of the invention on the secretion of prostaglandins (PGE2), which increase articular inflammation, and of leukotriene (LTB4) was measured on differentiated HL-60 cells using the methods of Honda (M. Honda et al., Diabetes Res., (1990) 14, 43-46) and of Bennett (C. F. Bennett et al., Biochem. J., (1993) 289, 33-39), respectively, using indomethacin and nordihydroguaiaretic acid as reference products.

Where [2] appears, read: read-out: IL1β, percentage of inhibition.
The mark [3] stands for this setting: read-out: IL6, percentage of inhibition.

For the molecule `O=C(O)c1cc(O)c2c(=O)cc(-c3ccccc3)oc2c1` [Example 1, 5-Hydroxy-2-phenyl-4-oxo-4H-chromene-7-carboxylic acid], the melting point is 270 °C (dec.). For the same molecule, in the data set on IL-1 (interleukin 1) (1 μM, read-out: IL1β, percentage of inhibition), the inhibition at 1 µM is 15%. The inhibition at 10 µM with IL-1 (interleukin 1) (setting [2]) worked out at 96%. Further, the inhibition at 1 µM with IL-6 (1 μM, read-out: IL6, percentage of inhibition) came out at 50%. The inhibition at 10 µM in the data set on IL-6 (setting [3]) amounted to 98%. For the same molecule, the inhibition at 1 µM in data set [1] (1 μM) was determined as 61%. Moreover, the inhibition at 10 µM in data set [1] (10 μM) was 32%.
Regarding `COc1ccc(-c2cc(=O)c3c(O)cc(C(=O)O)cc3o2)cc1` [Example 4, 5-Hydroxy-0.2-(4′-methoxyphenyl)-4-oxo-4H-chromene-7-carboxylic acid], the “IL1β, percentage of inhibition” value in the data set with IL-1 (interleukin 1) (1 μM) was under 10%. Also, the “IL6, percentage of inhibition” value with IL-6 (1 μM) turned out to be 56%. In addition, the “effect on the secretion of prostaglandins” value with prostaglandins (PGE2) is on record as “stimulating the secretion of prostaglandins”.
For the molecule `O=C(O)c1cc(O)c2c(=O)cc(-c3ccc(C(F)(F)F)cc3)oc2c1` [Example 6, 5-Hydroxy-2-(4′-trifluoromethylphenyl)-4-oxo-4H-chromene-7-carboxylic acid], the results for the inhibition at 10 µM with IL-1 (interleukin 1) (setting [2]) and in the data set with IL-6 (setting [3]) were 72% and 100%, respectively.
